Where “and” joins values, the source holds several entries; their conditions need not be identical. Equal entries are not always repeated. Where two headings read alike, the source gives them in different places.
Legend:
[1] = Stability of target analytes in the breath collection device; type: physicochemical
Excerpt: In particular, CBN, CBG, and Δ^9-THCV all have a much greater incidence in breath during peak impairment (the first hour after smoking) compared to pre-smoking. […] Stability of the analytes within the breath collection devices was previously established (see Table 4 below).

[2] = Presence of cannabinoids in exhaled breath before and after smoking (LC-HRMS); type: in vivo, human
Description: (§1) The positive recent use test results outside of the three-hour impairment window based on blood sampling alone led to the incorporation of a second testing matrix, exhaled breath, to strengthen the results of the test method so that cannabis users who are within the impairment window after smoking can be more accurately identified. For this purpose, a total of 44 additional subjects were evaluated in a smoking study in which both exhaled breath and blood samples were collected and then analyzed by LC-HRMS for cannabinoids and Δ^9-THC metabolites. As with the 48-subject blood-based study, subjects were given a 500-mg cannabis cigarette to smoke, and breath and blood samples were collected at various time points before and after smoking.

[3] = Cannabinoids and Δ^9-THC metabolites in capillary blood (LC-HRMS); settings: pre-smoking
Excerpt: The complex nature of cannabinoid pharmacokinetics and pharmacodynamics calls for a new approach for effectively determining recent use of cannabis within the impairment window. We sought to develop a multiple-parameter test based on pharmacological changes in Δ^9-THC and its metabolites in blood over time. This approach requires the collection of two samples separated by a known time interval, which is a critical difference compared to current blood testing methods that rely on the collection of a single sample. The two-sample strategy makes possible the detection of Δ^9-THC in its distribution phase where the half-life is very short [Moeller M R. et al., J Forensic Sci 37:969-83 (1992); Wall M E. et al., Clin Pharmacol Ther 34:352-63 (1983)], which occurs only within the first few hours after smoking, and for the evaluation of how Δ^9-THC metabolite levels in blood are changing with time relative to Δ^9-THC. A liquid chromatography high-resolution mass spectrometry (LC-HRMS) bioanalytical method for the quantification of cannabinoids in microsamples (50 μL) of whole blood was developed and validated for this purpose [DeGregorio M W. et al., J AOAC Int 103:725-35 (2020)].
A total of 92 subjects were included in clinical trials designed to evaluate the feasibility of the described method for determining recent cannabis use (blood-based study in 48 subjects) and recent cannabis use and impairment (breath- and blood-based study in 44 subjects). Each subject was given a single cannabis cigarette and instructed to smoke as much of it as possible within a 10-minute period. Cigarettes containing 500 mg of dried cannabis flower were prepared immediately before each smoking session. During the studies, subjects were given a variety of cannabis chemovars to smoke, with Δ^9-THC content ranging from a low of 8.5% to a high of 28.4%. A wide variety of chemovars was included to account for the variability in Δ^9-THC potencies available in numerous cannabis retail establishments in the various U.S. states where recreational and/or medicinal cannabis has been legalized. Capillary blood samples ([…] collected at various time points prior to smoking and up to 200 minutes after smoking, were obtained from a total of 92 subjects using a variety of methods including lancets and two types of automated blood collection devices. Exhaled breath samples were collected from a total of 44 subjects at various time points prior to smoking and up to 240 minutes post-smoking. Breath samples were collected using devices equipped with electrostatic polymer filters and that are designed to collect approximately 20 L of exhaled breath through normal breathing. The time required for breath sample collection was approximately 2-3 minutes. A total of 74 subjects were asked to self-assess their level of impairment before smoking and at each designated sampling time point after smoking based on a scale ranging from 0 (not impaired) to 10 (very impaired) as shown in FIG. 2. As a physical indicator of impairment, 44 subjects were evaluated for horizontal gaze nystagmus.
One of the first endpoints investigated during clinical development of the recent use test method was whether there is any relationship between blood Δ^9-THC levels and impairment. Prior to smoking, Δ^9-THC blood concentrations were evaluated in a group of 30 subjects before and up to 200 minutes after smoking a 500-mg cannabis cigarette and compared to a common legal limit (5 ng/mL) for establishing driver impairment due to cannabis.

[4] = Cannabinoid half-lives in exhaled breath, multi-point breath sampling; type: in vivo, human; settings: for Cannabinoid Half-Lives (min) in breath, back-to-back sampling: individual subject; for half-life: human, exhaled breath, inhaled, 500 mg
Description: as §1
These included the presence of CBN, CBC, CBG, Δ^9-THCV, and CBGA, and short half-lives (<60 minutes) for Δ^9-THC, CBN, CBC, CBG, and Δ^9-THCV (see Table 5 below). […] Pre-smoking, half-lives were calculable for Δ^9-THC in only three subjects.
Evidence of recent cannabis use by inhalation through smoking or vaping dissipates rapidly in exhaled breath, and thus allowing 20 minutes between breath samplings, which was employed in the blood-based study and for most of the subjects in the blood and breath-based study, may result in the loss of valuable data. In the last nine subjects involved in the exhaled breath study, a back-to-back sample collection strategy was employed whereby two exhaled breath samples were collected in quick succession at 20 and 40 minutes post-smoking. Approximately two minutes elapsed between the collection of each sample. The very short half-lives observed for Δ^9-THC, CBN, and other cannabinoids (approximately five minutes or less) in exhaled breath would allow for rapid sampling (see Table 6 below).

[5] = separate 20-subject and 23-subject studies (Lynch; Olla); cited from earlier work
[6] = Breath/blood Δ^9-THC ratio; settings: all 44 subjects
Excerpt: We hypothesized that the incorporation of both exhaled breath and blood into a comprehensive recent cannabis use test would confirm recent use of inhaled cannabis within the impairment window, improving the accuracy of the two-point breath testing method. For this purpose, blood samples were collected from the 44 subjects in addition to breath samples and analyzed for Δ^9-THC and other cannabinoids. […] This ratio was computed by dividing the Δ^9-THC peak area ratio to the internal standard in breath by the corresponding peak area ratio in blood.

[7] = Day 3, breath collection device
[8] = Day 7, breath collection device
[9] = Day 10, breath collection device
[10] = Day 14, breath collection device
[11] = Day 30, breath collection device

| Compound | Analyte Stability (%) at Room Temperature (20-25° C.) [1, 7] | Analyte Stability (%) at Room Temperature (20-25° C.) [1, 8] | Analyte Stability (%) at Room Temperature (20-25° C.) [1, 9] | Analyte Stability (%) at Room Temperature (20-25° C.) [1, 10] | Analyte Stability (%) at Room Temperature (20-25° C.) [1, 11] | Presence in exhaled breath, Percent (%) Positivity ([2]; >60 minutes after smoking) | Presence in exhaled breath, positive/evaluable subjects ([2]; >60 minutes after smoking) | Presence in exhaled breath, positive/evaluable subjects ([2]; Baseline (Pre-smoking)) | Presence in exhaled breath, Percent (%) Positivity ([2]; ≤60 minutes after smoking) | Presence in exhaled breath, positive/evaluable subjects ([2]; ≤60 minutes after smoking) | detection in subjects' blood samples at baseline prior to smoking [3] | Cannabinoid Half-Lives (min) in breath, back-to-back sampling ([4]; 20 Minutes Post-Smoking) | Cannabinoid Half-Lives (min) in breath, back-to-back sampling ([4]; 40 Minutes Post-Smoking) | further results |
| --- | --- | --- | --- | --- | --- | --- | --- | --- | --- | --- | --- | --- | --- | --- |
| CCCCCc1cc(O)c2c(c1)OC(C)(CCC=C(C)C)C=C2 (centres unmarked) [CBC, cannabichromene] | 100.6% | 89.1% | 89.9% | 82.2% | 75.6% | (0%) | 0/40 | 0/34 | (97.5%) | 39/40 | detected | 2.2 min and 2.0 min and 2.7 min and 1.3 min and 11.8 min and 1.0 min | 2.3 min and 3.5 min and 5.2 min | Presence in exhaled breath, Percent (%) Positivity ([2]; Baseline (Pre-smoking)): (0%); half-life ([4]; 0-10 Minutes Post-Smoking, read-out: Average Half-Life (minutes ± SD) in breath): 3.9 ± 2.5 min; half-life ([4]; 0-20 Minutes Post-Smoking, read-out: Average Half-Life (minutes ± SD) in breath): 3.8 ± 2.3 min; half-life ([4]; 20 Minutes Post-Smoking, read-out: Cannabinoid Half-Lives (min) in breath, back-to-back sampling, Average): 3.3 min; half-life ([4]; 40 Minutes Post-Smoking, read-out: Cannabinoid Half-Lives (min) in breath, back-to-back sampling, Average): 3.6 min |
| CCCCCc1cc(O)c2c(c1)OC(C)(C)[C@@H]1CCC(C)=C[C@@H]21 [Δ^9-THC, Δ^9-tetrahydrocannabinol] | 91.3% | 81.2% | 82.9% | 66.2% | 55.6% | (92.5%) | 37/40 | 23/34 | (100%) | 40/40 | detected | 1.9 min (2×) and 2.3 min and 2.1 min and 2.9 min and 2.8 min and 1.0 min and 1.4 min and 1.6 min and 7.3 min and 3.8 min and 11.8 min and 1.2 min and 0.9 min | 2.2 min and 9.9 min and 3.7 min and 5.9 min and 8.6 min | pre-smoking detection rates of Δ^9-THC in breath [5]: 100%; breath/blood Δ^9-THC ratio ([6]; immediately after smoking): > 2; breath/blood Δ^9-THC ratio ([6]; within the first hour after smoking): ≥ 2; average baseline Δ^9-THC concentration in blood ([3]; 12-24 h abstinence, n=30): 10.5 ± 15 ng/mL; baseline Δ^9-THC levels in blood ([3]; 16 of 30 subjects): exceeded 5 ng/mL; median baseline Δ^9-THC concentration in blood ([3]; n=30): 6.4 ng/mL; Average Half-Life (minutes ± SD) in breath ([4]; 0-10 Minutes Post-Smoking): 4.4 ± 2.2 min; Average Half-Life (minutes ± SD) in breath ([4]; 0-20 Minutes Post-Smoking): 4.2 ± 2.1 min; Average Half-Life (minutes ± SD) in breath ([4]; 20-40 Minutes Post-Smoking): 8.1 ± 2.3 min; Average Half-Life (minutes ± SD) in breath ([4]; 20-60 Minutes Post-Smoking): 12.8 ± 8.8 min; Cannabinoid Half-Lives (min) in breath, back-to-back sampling, Average ([4]; 20 Minutes Post-Smoking): 3.5 min and 2.2 min; Average Half-Life (minutes ± SD) in breath ([4]; 40-60 Minutes Post-Smoking): 24.4 ± 25.4 min; Cannabinoid Half-Lives (min) in breath, back-to-back sampling, Average ([4]; 40 Minutes Post-Smoking): 6.1 min; Average Half-Life (minutes ± SD) in breath ([4]; 60-80 Minutes Post-Smoking): 35.0 ± 41.7 min; Average Half-Life (minutes ± SD) in breath ([4]; Pre-Smoking): 28.8 ± 28.7 min; half-lives observed in exhaled breath ([4]; approximate, summary statement): five |

— patent US20240027479A1, “A Comprehensive Breath Test that Confirms Recent Use of Inhaled Cannabis within the Impairment Window” (RCU Labs, Inc., priority 2018, published 2024)
